{"source": "PubChem BioAssay AID1963844", "about": "(Molecular Pharmacology Branch, DTP, NCI, 2024);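 also: spheroids exposed to compounds for one week before readout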;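 as to viability, T/C: percent of DMSO vehicle wells luminescence so 100% = untreated viability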", "system": "422866-222-R5-J1-PDC complex spheroid viability", "assay": "Anticancer human tumor 422866-222-R5-J1-PDC patient-derived pancreatic adenocarcinoma cell line growth inhibition [POLQ]", "conditions": "for IC50: curve of first compound; for viability, T/C: stronger effect = lower value", "method_in_brief": "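Growth inhibition in 3D: complex spheroids (tumor PDC, HUVEC, MSC) treated with POLQ inhibitor combinations; where Cmax unknown, highest tested concentration 10 microM, except SN-38 at 1 microM.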", "key": {"[1]": {"conditions": "second compound 0.0316 µM, first compound 0.0316 µM"}, "[2]": {"conditions": "second compound 0.0316 µM, first compound 0.1 µM"}, "[3]": {"conditions": "second compound 0.0316 µM, first compound 0.316 µM"}, "[4]": {"conditions": "second compound 0.0316 µM, first compound 1 µM"}, "[5]": {"conditions": "second compound 0.1 µM, first compound 0.0316 µM"}, "[6]": {"conditions": "second compound 0.1 µM, first compound 0.1 µM"}, "[7]": {"conditions": "second compound 0.1 µM, first compound 0.316 µM"}, "[8]": {"conditions": "second compound 0.1 µM, first compound 1 µM"}, "[9]": {"conditions": "second compound 0.316 µM, first compound 0.0316 µM"}, "[10]": {"conditions": "second compound 0.316 µM, first compound 0.1 µM"}, "[11]": {"conditions": "second compound 0.316 µM, first compound 0.316 µM"}, "[12]": {"conditions": "second compound 0.316 µM, first compound 1 µM"}, "[13]": {"conditions": "second compound 1 µM, first compound 0.0316 µM"}, "[14]": {"conditions": "second compound 1 µM, first compound 0.1 µM"}, "[15]": {"conditions": "second compound 1 µM, first compound 0.316 µM"}, "[16]": {"conditions": "second compound 1 µM, first compound 1 µM"}, "[17]": {"conditions": "second compound 3.16 µM, first compound 0.0316 µM"}, "[18]": {"conditions": "second compound 3.16 µM, first compound 0.1 µM"}, "[19]": {"conditions": "second compound 3.16 µM, first compound 0.316 µM"}, "[20]": {"conditions": "second compound 3.16 µM, first compound 1 µM"}, "[21]": {"conditions": "second compound 10 µM, first compound 0.0316 µM"}, "[22]": {"conditions": "second compound 10 µM, first compound 0.1 µM"}, "[23]": {"conditions": "second compound 10 µM, first compound 0.316 µM"}, "[24]": {"conditions": "second compound 10 µM, first compound 1 µM"}}}
{"smiles": "CCc1c2c(nc3ccc(O)cc13)-c1cc3c(c(=O)n1C2)COC(=O)[C@]3(O)CC", "note": "+ COC1C(OC(N)=O)C(O)C(Oc2ccc3c(O)c(NC(=O)c4ccc(O)c(CC=C(C)C)c4)c(=O)oc3c2C)OC1(C)C", "values": [{"measurement": "IC50", "setting": "second compound 0.0316 µM", "value": "< 3.16", "unit": "nM"}, {"measurement": "IC50", "setting": "second compound 0.1 µM", "value": "< 3.16", "unit": "nM"}, {"measurement": "IC50", "setting": "second compound 0.316 µM", "value": "< 3.16", "unit": "nM"}, {"measurement": "IC50", "setting": "second compound 1 µM", "value": "< 3.16", "unit": "nM"}, {"measurement": "IC50", "setting": "second compound 3.16 µM", "value": "< 3.16", "unit": "nM"}, {"measurement": "IC50", "setting": "second compound 10 µM", "value": "< 3.16", "unit": "nM"}, {"measurement": "viability, T/C", "setting": "second compound 0.0316 µM, first compound 0.00316 µM", "value": 44.1, "unit": "%"}, {"measurement": "viability, T/C", "setting": "second compound 0.0316 µM, first compound 0.01 µM", "value": 34.4, "unit": "%"}, {"measurement": "viability, T/C", "setting": "[1]", "value": 33.4, "unit": "%"}, {"measurement": "viability, T/C", "setting": "[2]", "value": 30.8, "unit": "%"}, {"measurement": "viability, T/C", "setting": "[3]", "value": 28.7, "unit": "%"}, {"measurement": "viability, T/C", "setting": "[4]", "value": 19.7, "unit": "%"}, {"measurement": "viability, T/C", "setting": "second compound 0.1 µM, first compound 0.00316 µM", "value": 41.3, "unit": "%"}, {"measurement": "viability, T/C", "setting": "second compound 0.1 µM, first compound 0.01 µM", "value": 34.8, "unit": "%"}, {"measurement": "viability, T/C", "setting": "[5]", "value": 32, "unit": "%"}, {"measurement": "viability, T/C", "setting": "[6]", "value": 30.6, "unit": "%"}, {"measurement": "viability, T/C", "setting": "[7]", "value": 34.6, "unit": "%"}, {"measurement": "viability, T/C", "setting": "[8]", "value": 18.6, "unit": "%"}, {"measurement": "viability, T/C", "setting": "second compound 0.316 µM, first compound 0.00316 µM", "value": 41.1, "unit": "%"}, {"measurement": "viability, T/C", "setting": "second compound 0.316 µM, first compound 0.01 µM", "value": 35.9, "unit": "%"}, {"measurement": "viability, T/C", "setting": "[9]", "value": 30.9, "unit": "%"}, {"measurement": "viability, T/C", "setting": "[10]", "value": 29.6, "unit": "%"}, {"measurement": "viability, T/C", "setting": "[11]", "value": 32.9, "unit": "%"}, {"measurement": "viability, T/C", "setting": "[12]", "value": 16.7, "unit": "%"}, {"measurement": "viability, T/C", "setting": "second compound 1 µM, first compound 0.00316 µM", "value": 41.8, "unit": "%"}, {"measurement": "viability, T/C", "setting": "second compound 1 µM, first compound 0.01 µM", "value": 30.9, "unit": "%"}, {"measurement": "viability, T/C", "setting": "[13]", "value": 30.5, "unit": "%"}, {"measurement": "viability, T/C", "setting": "[14]", "value": 33.8, "unit": "%"}, {"measurement": "viability, T/C", "setting": "[15]", "value": 32.6, "unit": "%"}, {"measurement": "viability, T/C", "setting": "[16]", "value": 19, "unit": "%"}, {"measurement": "viability, T/C", "setting": "second compound 3.16 µM, first compound 0.00316 µM", "value": 41, "unit": "%"}, {"measurement": "viability, T/C", "setting": "second compound 3.16 µM, first compound 0.01 µM", "value": 34.8, "unit": "%"}, {"measurement": "viability, T/C", "setting": "[17]", "value": 36, "unit": "%"}, {"measurement": "viability, T/C", "setting": "[18]", "value": 32.7, "unit": "%"}, {"measurement": "viability, T/C", "setting": "[19]", "value": 34.3, "unit": "%"}, {"measurement": "viability, T/C", "setting": "[20]", "value": 22.5, "unit": "%"}, {"measurement": "viability, T/C", "setting": "second compound 10 µM, first compound 0.00316 µM", "value": 39.4, "unit": "%"}, {"measurement": "viability, T/C", "setting": "second compound 10 µM, first compound 0.01 µM", "value": 34.2, "unit": "%"}, {"measurement": "viability, T/C", "setting": "[21]", "value": 31.6, "unit": "%"}, {"measurement": "viability, T/C", "setting": "[22]", "value": 32.1, "unit": "%"}, {"measurement": "viability, T/C", "setting": "[23]", "value": 31.1, "unit": "%"}, {"measurement": "viability, T/C", "setting": "[24]", "value": 19.9, "unit": "%"}]}
{"smiles": "Nc1ccn(C2OC(CO)C(O)C2(F)F)c(=O)n1", "note": "(centres undefined) + COC1C(OC(N)=O)C(O)C(Oc2ccc3c(O)c(NC(=O)c4ccc(O)c(CC=C(C)C)c4)c(=O)oc3c2C)OC1(C)C", "values": [{"measurement": "IC50", "setting": "second compound 0.0316 µM", "value": 110, "unit": "nM"}, {"measurement": "IC50", "setting": "second compound 0.1 µM", "value": 94, "unit": "nM"}, {"measurement": "IC50", "setting": "second compound 0.316 µM", "value": 105, "unit": "nM"}, {"measurement": "IC50", "setting": "second compound 1 µM", "value": 74.6, "unit": "nM"}, {"measurement": "IC50", "setting": "second compound 3.16 µM", "value": 139, "unit": "nM"}, {"measurement": "IC50", "setting": "second compound 10 µM", "value": 67.4, "unit": "nM"}, {"measurement": "viability, T/C", "setting": "[1]", "value": 73.5, "unit": "%"}, {"measurement": "viability, T/C", "setting": "[2]", "value": 49.9, "unit": "%"}, {"measurement": "viability, T/C", "setting": "[3]", "value": 40.9, "unit": "%"}, {"measurement": "viability, T/C", "setting": "[4]", "value": 33.1, "unit": "%"}, {"measurement": "viability, T/C", "setting": "second compound 0.0316 µM, first compound 3.16 µM", "value": 28, "unit": "%"}, {"measurement": "viability, T/C", "setting": "second compound 0.0316 µM, first compound 10 µM", "value": 32, "unit": "%"}, {"measurement": "viability, T/C", "setting": "[5]", "value": 75.6, "unit": "%"}, {"measurement": "viability, T/C", "setting": "[6]", "value": 47.7, "unit": "%"}, {"measurement": "viability, T/C", "setting": "[7]", "value": 40.9, "unit": "%"}, {"measurement": "viability, T/C", "setting": "[8]", "value": 33.7, "unit": "%"}, {"measurement": "viability, T/C", "setting": "second compound 0.1 µM, first compound 3.16 µM", "value": 32.6, "unit": "%"}, {"measurement": "viability, T/C", "setting": "second compound 0.1 µM, first compound 10 µM", "value": 36.2, "unit": "%"}, {"measurement": "viability, T/C", "setting": "[9]", "value": 74, "unit": "%"}, {"measurement": "viability, T/C", "setting": "[10]", "value": 48.2, "unit": "%"}, {"measurement": "viability, T/C", "setting": "[11]", "value": 42.5, "unit": "%"}, {"measurement": "viability, T/C", "setting": "[12]", "value": 36.1, "unit": "%"}, {"measurement": "viability, T/C", "setting": "second compound 0.316 µM, first compound 3.16 µM", "value": 31.7, "unit": "%"}, {"measurement": "viability, T/C", "setting": "second compound 0.316 µM, first compound 10 µM", "value": 33.4, "unit": "%"}, {"measurement": "viability, T/C", "setting": "[13]", "value": 67.3, "unit": "%"}, {"measurement": "viability, T/C", "setting": "[14]", "value": 43.1, "unit": "%"}, {"measurement": "viability, T/C", "setting": "[15]", "value": 41, "unit": "%"}, {"measurement": "viability, T/C", "setting": "[16]", "value": 36.1, "unit": "%"}, {"measurement": "viability, T/C", "setting": "second compound 1 µM, first compound 3.16 µM", "value": 38.4, "unit": "%"}, {"measurement": "viability, T/C", "setting": "second compound 1 µM, first compound 10 µM", "value": 34.3, "unit": "%"}, {"measurement": "viability, T/C", "setting": "[17]", "value": 61.5, "unit": "%"}, {"measurement": "viability, T/C", "setting": "[18]", "value": 54.5, "unit": "%"}, {"measurement": "viability, T/C", "setting": "[19]", "value": 38.8, "unit": "%"}, {"measurement": "viability, T/C", "setting": "[20]", "value": 37.2, "unit": "%"}, {"measurement": "viability, T/C", "setting": "second compound 3.16 µM, first compound 3.16 µM", "value": 34.5, "unit": "%"}, {"measurement": "viability, T/C", "setting": "second compound 3.16 µM, first compound 10 µM", "value": 38.6, "unit": "%"}, {"measurement": "viability, T/C", "setting": "[21]", "value": 62.7, "unit": "%"}, {"measurement": "viability, T/C", "setting": "[22]", "value": 43.7, "unit": "%"}, {"measurement": "viability, T/C", "setting": "[23]", "value": 37.5, "unit": "%"}, {"measurement": "viability, T/C", "setting": "[24]", "value": 35.7, "unit": "%"}, {"measurement": "viability, T/C", "setting": "second compound 10 µM, first compound 3.16 µM", "value": 39, "unit": "%"}, {"measurement": "viability, T/C", "setting": "second compound 10 µM, first compound 10 µM", "value": 35.4, "unit": "%"}]}
